For one assay, the target named is T1, Candida albicans NMT (Candida albicans, UniProt P30418).
T1 construct: made in house; host or cells: E. coli
T1 sequence (P30418 1-451): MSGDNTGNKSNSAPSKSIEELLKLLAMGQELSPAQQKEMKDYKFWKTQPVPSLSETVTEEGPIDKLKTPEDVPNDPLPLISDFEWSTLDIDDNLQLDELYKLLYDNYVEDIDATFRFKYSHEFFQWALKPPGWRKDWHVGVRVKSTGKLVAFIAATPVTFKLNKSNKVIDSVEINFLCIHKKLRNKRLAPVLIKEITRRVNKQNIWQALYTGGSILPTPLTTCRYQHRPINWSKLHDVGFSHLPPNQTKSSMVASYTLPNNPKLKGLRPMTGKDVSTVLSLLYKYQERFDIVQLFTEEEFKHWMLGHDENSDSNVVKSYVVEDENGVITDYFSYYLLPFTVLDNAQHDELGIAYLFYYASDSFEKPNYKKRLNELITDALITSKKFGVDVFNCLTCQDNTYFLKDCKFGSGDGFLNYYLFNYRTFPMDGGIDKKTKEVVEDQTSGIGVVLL
Kind of assay: NMT enzyme inhibition assay (radiochemical HPLC end-point), Candida NMT. It counts as biochemical. The procedure: (§1) Recombinant Candida albicans and human NMTs were expressed and purified from E. coli using previously described protocols. [D. A. Towler et al, Proc. Natl. Acad. Sci. USA, 84, 2707-2712 (1987); R. C. Weigand et al, J. Biol. Chem., 267, 8591-8598 (1992); R. J. Duronio et al, Proc. Natl. Acad. Sci. USA, 89, 4129-4133 (1992)] The ability of compounds to inhibit Candida NMT enzymatic activity was assessed using a radiochemical HPLC end-point assay as described previously for Saccharomyces cerevisiae and human NMTs. [D. Towler et al, Proc. Natl. Acad. Sci. USA, 83, 2812-2816 (1986); W. J. Rocque et al, J. Biol. Chem., 268, 9964-9971 (1991)] The donor substrate [^3H]myristoyl-coenzyme A was enzymatically synthesized from [^3H]myristic acid (50 Ci/mmol, Amersham, Arlington Heights, Ill.) and coenzyme A (Fluka Chemical Corp., Ronkonkoma, N.Y.), and purified as described previously. [W. J. Rocque et al, J. Biol. Chem., 268, 9964-9971 (1991)] The peptide acceptor substrate GNAASARR-NH2 was prepared by solid-phase peptide synthesis using the t-Boc amino acid methodology, followed by HF treatment and reverse-phase HPLC purification. Inhibitor stock solutions were prepared at 22 mM in DMSO; the final concentration of DMSO in each assay was 0.5% (v/v). Inhibition assays were carried out by combining variable amounts of inhibitor or buffer with 0.11 mmoles of [^3H]myristoyl-coenzyme A (1 μCi, 9.09 Ci/mmol) and 2.2 nmoles of GNAASARR-NH2 in a total volume of 60 μL of 0.2 M N-[2-hydroxy-ethyl]piperazine-N′-[2-ethanesulfonic acid], pH 7.4, 2 mM DL-dithiothreitol, 0.2 mM ethylene glycol-bis-(β-aminoethyl ether) N,N,N′,N′-tetraacetic acid, and initiating the reaction by the addition of 50 μL of a Candida NMT solution (7-12 ng/50 μL). Assays with human NMT were identical except that they used 60-75 ng/50 μL of enzyme solution and 0.22 nmoles of GNAASARR-NH2. The reaction was quenched after 10 minutes at 24° C. by the addition of ice-cold MeOH, and the reaction products were separated and measured using C4 reverse-phase HPLC (Vydac 214TP10415; Separations Group, Hesperia, Calif.) and in-line scintillation counting using a Radiomatic A250 (Packard Instruments, Downers Grove, Ill.) and Ecolite(+) (ICN Biomedical, Costa Mesa, Calif.) as the scintillant. Selectivity was determined by calculating the ratio of the IC50 against human NMT to the IC50 against C. albicans NMT.

For the next assay, the target named is T2, human NMT (Homo sapiens, UniProt P30419).
T2 construct: made in house; host or cells: E. coli
T2 sequence (P30419 1-416 isoform P30419-2): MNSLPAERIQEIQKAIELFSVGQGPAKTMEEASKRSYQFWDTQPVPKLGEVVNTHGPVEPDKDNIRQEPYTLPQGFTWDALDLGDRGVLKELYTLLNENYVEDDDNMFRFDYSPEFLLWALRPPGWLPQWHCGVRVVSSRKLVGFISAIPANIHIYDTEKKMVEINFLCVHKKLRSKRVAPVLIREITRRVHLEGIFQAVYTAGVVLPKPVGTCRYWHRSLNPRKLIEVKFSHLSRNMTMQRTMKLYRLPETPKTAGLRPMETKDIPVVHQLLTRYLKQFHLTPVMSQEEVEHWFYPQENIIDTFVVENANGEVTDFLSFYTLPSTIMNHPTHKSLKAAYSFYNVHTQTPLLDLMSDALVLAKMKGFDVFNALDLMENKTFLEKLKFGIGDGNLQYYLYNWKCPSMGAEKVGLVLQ
The assay is described as follows: NMT enzyme inhibition assay (radiochemical HPLC end-point), human NMT. The note with it: Table V. In kind it is biochemical. The procedure:
as §1, with “Inhibition assays were carried out by combining variable amounts of inhibitor or buffer with 0.11 mmoles of [^3H]myristoyl-coenzyme A (1 μCi, 9.09 Ci/mmol) and 2.2 nmoles of GNAASARR-NH2 in a total volume of 60 μL of 0.2 M N-[2-hydroxy-ethyl]piperazine-N′-[2-ethanesulfonic acid], pH 7.4, 2 mM DL-dithiothreitol, 0.2 mM ethylene glycol-bis-(β-aminoethyl ether) N,N,N′,N′-tetraacetic acid, and initiating the reaction by the addition of 50 μL of a Candida NMT solution (7-12 ng/50 μL). Assays with human NMT were identical except that they used 60-75 ng/50 μL of enzyme solution and 0.22 nmoles of GNAASARR-NH2.” left out

The subject of assay [1] is Candida albicans, strain B311. Kind of assay: Antifungal susceptibility testing, microdilution broth, pH 5.4/30° C./YNB. It counts as cell-based. As to conditions: B311, 24 hours, Table V (values agree with pH 5.4 assay), read-out: caEC50 24 hours. The procedure:
Antifungal Screens were set up initially against Candida albicans, strain B311, and Cryotococcus neoformans, strain L210425. Both pathogens, (originally from the stock culture collection, Medical mycology research center, Washington university-Barnes hospital), were obtained from Dr.Kobayashi, Prof.of infectious diseases, Washington University, St.Louis, Mo.
All cultures are maintained at 30° C. on Sabouraud's dextrose agar slants and subcultured at monthly intervals to fresh medium. All inocula for susceptibility testing are prepared in yeast nitogen base(YNB, Difco) broth.
A loopful of growth from Sabouraud dextrose agar slant is inoculated into 4 ml of YNB broth media and incubated at 30° C. overnight (18-24 hrs) with constant agitation (Gyratory Shaker, New Brunswick Scientific). Prior to setting up susceptibility testing, the organisms are counted in a hemocytometer, and diluted as needed into assay media.
1) (Assay at DH 5.4/30° C. Incubation/YNB Media).
Antifungal assays were carried out initially by a modification of the method published by Jones, et. al; (1), and communicated to Searle by Dr. Kobayashi, Washington University. [R. N. Jones et al, Manual of Clinical Microbiology, 4th ed., (1985)]
The antifungal susceptibility testing consists of a microdilution broth procedure performed in 96 well microtiter plates (Costar, cat#3799). Briefly, test compounds from a 20 mM stock solution in DMSO are diluted into sterile, deionized water (final DMSO concentration not exceeding 1%), to yield 2× the desired concentration (100 uM, 10 uM and 1 uM for an initial screen, or a selected concentration range in serial 2 fold dilutions for EC50 determination). One hundred microliters (100 ul) of each concentration is dispensed into triplicate wells of a 96 well microtiter plate. Appropriate dilutions of a suspension of C.albicans (1×10^6 cells/ml) in 2× YNB is distributed into each of the wells, including growth control wells containing no test compound as well as control wells with 0.5% DMSO. Amphotericin B at 0.05, 1 and 5 ug/ml is included in each assay plate as a positive control. The plates are incubated at 30° C. and cell growth is scored by reading the absorbance at 590 nm on an Elisa plate reader(Dynatech, MR.5000).
Background: Dilution methods test growth across graded concentrations, often in twofold steps.

A further assay deals with C.albicans, B311. The assay is described as follows: Antifungal susceptibility testing, pH 7.0/35° C., 1x10^3 cells/mL. It counts as cell-based. The note with it: Candida albicans. Here is the method:
(§2) 2) Assay at pH 7.0/35° C. Incubation/(Candida Strains Only).
(§3) Based on several papers published during 1990-1993 regarding the standardization of testing procedures at multiple research centers, and the finding that, inoculum size, pH of media, and the temperature of incubation drastically affect the antifungal activity of several compounds, particularly in the Azole class of antifungals, an additional assay was configured at pH 7.0 for Candida albicans. [M. A. Pfaller et al, Antimicrobial Agents and Chemotherapy, 34, 1648-1654 (1990); F. C. Odds et al, Antimicrobial Agents and Chemotherapy, 36, 1727-1737 (1992); R. A. Cook et al, Antimicrobial Agents and Chemotherapy, 34, 1542-1545 (1990)]
(§4) The assay format is identical to the first one with the following modifications: C.albicans cells are diluted to 1×10^3 cells/ml into 2× buffered YNB (YNB buffered with 1.65 mM MOPS, pH 7.0, with the addition of 2% Dextrose and 0.08% casamino acids mixture, bio 101. inc,cat #10420-100). Incubation is carried out at 35° C. instead of 30° C., and cell growth is monitored at 590 nm at 24 and 48 hrs as described. All other aspects of the assay are identical. This assay was validated with amphotericin B, fluconazole, cilofungin (Ly-121019), Nikkomycin and terbinafine using the following Candida strains- (C.albicans, B311, C.parasilosis, C.tropicalis, C.lusitaniae, C.glabrata, and C. albicans 516)-Table II. All strains were from Dr. Kobayashi, Washington university.

For another assay, the system named is C.glabrata. The assay is described as above. In kind it is cell-based. As to conditions: Nakaseomyces glabratus. Here is the method:
as §2, §3, §4

In another assay the test system is C.lusitaniae. The description is as above. In kind it is cell-based. The note with it: Clavispora lusitaniae. The procedure:
as §2, §3, §4

The next assay relates to C.parasilosis. The description is as above. It counts as cell-based. The procedure: as §2, §3, §4
A further assay has as its system C.tropicalis. The assay is described as above. It counts as cell-based. The note with it: Candida tropicalis. The procedure:
as §2, §3, §4

Another assay deals with C. albicans 516. The assay is described as above. In kind it is cell-based, Candida albicans. The procedure: as §2, §3, §4

Experimental findings from patent US6632921B1, “Seryl-lysyl-based peptide and peptidomimetic inhibitors of N-myristoyl transferase as anti-infective agents” (G. D Searle & Co, priority 1995, dated 2003) are described below.

Where two headings read alike, the source gives them in different places.

For orientation: IC50 means the midpoint of a concentration-inhibition curve. For the compound `Cc1nccn1CCCCc1ccc(C(C)C(=O)N[C@@H](CO)C(=O)N[C@@H](CCCCN)C(=O)N[C@@H](CC2CCCCC2)C(=O)O)cc1` (mixture of isomers) [Example 1, L-Alanine, 3-cyclohexyl-N-[N^2-[N-[2-[4-[4-(2-methyl-1H-imidazol-1-yl)butyl]phenyl]oxopropyl]-L-seryl]-L-lysyl]-, (±), bis-trifluoroacetate], the IC50 is 0.4 µM at Candida albicans NMT (Table V, read-out: IC50 caNMT) and 850 µM against human NMT. The Selectivity on Candida albicans NMT (ratio of IC50 against human NMT to IC50 against C. albicans NMT) stood at 2200. Also, the EC50 in [1] was 33 µM.

Regarding `C[C@@H]([C@H](N)C(=O)N[C@H](C(=O)O)[C@H]1O[C@@H](n2ccc(=O)[nH]c2=O)[C@H](O)[C@@H]1O)[C@H](O)c1ccc(O)cn1` [Nikkomycin], the EC50 was 4.5 µM in the assay on C.albicans, B311 (B311, pH 7, read-out: EC50 - 48 HRS C.albicans); above 100 µM with C.glabrata (pH 7, read-out: EC50 - 48 HRS C.glab.); 28 µM in the assay on C.lusitaniae (pH 7, read-out: EC50 - 48 HRS C.lusi.); 13 µM in the assay on C.parasilosis (pH 7, read-out: EC50 - 48 HRS C.para); above 100 µM in the assay on C.tropicalis (pH 7, read-out: EC50 - 48 HRS C.trop.); 11 µM with C. albicans 516 (Candida albicans, 516, pH 7, read-out: EC50 - 48 HRS C.albicans (516)).

On to `CN(C/C=C/C#CC(C)(C)C)Cc1cccc2ccccc12` [Terbinafine, terbinafine], for which the EC50 in the assay on C.albicans, B311 (B311, pH 7.0/35° C./1x10^3 cells/mL, 48 hrs, read-out: EC50 - 48 HRS C.albicans) was 4.4 µM; in the assay with C.glabrata (pH 7.0/35° C./1x10^3 cells/mL, 48 hrs, read-out: EC50 - 48 HRS C.glab.), above 100 µM; in the assay on C.lusitaniae (pH 7.0/35° C./1x10^3 cells/mL, 48 hrs, read-out: EC50 - 48 HRS C.lusi.), 0.4 µM; in the assay on C.parasilosis (pH 7.0/35° C./1x10^3 cells/mL, 48 hrs, read-out: EC50 - 48 HRS C.para), 0.2 µM; in the assay on C.tropicalis (pH 7.0/35° C./1x10^3 cells/mL, 48 hrs, read-out: EC50 - 48 HRS C.trop.) it was above 100 µM; in the assay on C. albicans 516 (Candida albicans, 516, pH 7.0/35° C./1x10^3 cells/mL, 48 hrs, read-out: EC50 - 48 HRS C.albicans (516)), 3.2 µM.
